From patent publication US11541028B2, “Peptide pharmaceuticals for treatment of NASH and other disorders” (Mederis Diabetes LLC, priority 2018, dated 2023)
Bridge positions count the residues as written; N and C are the ends. Square brackets hold non-standard residues; d marks the D form. Peptide text beside a SMILES is read from it. * marks the point of attachment. Melibiouronoyl(1β-O-dodecyl) = CCCCCCCCCCCCO[C@@H]1O[C@H](CO[C@H]2O[C@H](C(=O)*)[C@H](O)[C@H](O)[C@H]2O)[C@@H](O)[C@H](O)[C@H]1O; X2 = CCCCCCCCCCCCCCO[C@@H]1O[C@H](CO[C@H]2O[C@H](C(=O)*)[C@H](O)[C@H](O)[C@H]2O)[C@@H](O)[C@H](O)[C@H]1O; Aib = CC(C)(N)C(=O)O

What was measured:
[1] = target: T1, human glucagon receptor (Homo sapiens, UniProt P47871); assay: DiscoveRx LeadHunter cellular assay, cAMP stimulation, glucagon receptor in CHO cells; assay type: cell-based
T1 construct: host or cells: CHO cells
Method: (§1) A further series of cellular assays was carried out with standard cellular assays (DiscoveRx, LeadHunter assays) using readout of cAMP stimulation or arrestin activation. Compounds were weighed precisely in an amount of about 1 mg and shipped to DiscoveRx for dilution and assay.

[2] = target: T2, human GLP-1 receptor (Homo sapiens, UniProt P43220); assay: DiscoveRx LeadHunter cellular assay, cAMP stimulation, GLP-1 receptor in CHO cells; assay type: cell-based; conditions: human GLP-1 receptor in CHO cells (DiscoveRx); read-out: EC50 cAMP GLP-1 R
T2 construct: host or cells: CHO cells
T2 sequence (P43220 24-463): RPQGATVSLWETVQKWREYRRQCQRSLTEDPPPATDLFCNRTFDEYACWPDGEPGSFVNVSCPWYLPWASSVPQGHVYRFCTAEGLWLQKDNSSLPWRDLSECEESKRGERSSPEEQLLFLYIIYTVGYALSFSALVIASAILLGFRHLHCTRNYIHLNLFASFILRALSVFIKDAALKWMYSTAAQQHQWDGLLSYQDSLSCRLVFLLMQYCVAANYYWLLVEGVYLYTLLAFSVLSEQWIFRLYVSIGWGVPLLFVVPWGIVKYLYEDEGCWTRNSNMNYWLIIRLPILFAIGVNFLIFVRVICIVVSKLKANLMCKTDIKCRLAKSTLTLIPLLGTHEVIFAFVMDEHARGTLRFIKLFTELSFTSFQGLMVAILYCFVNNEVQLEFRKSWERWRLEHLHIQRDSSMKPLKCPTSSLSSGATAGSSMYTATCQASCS
Method: as §1

T1 sequence (P47871 26-477): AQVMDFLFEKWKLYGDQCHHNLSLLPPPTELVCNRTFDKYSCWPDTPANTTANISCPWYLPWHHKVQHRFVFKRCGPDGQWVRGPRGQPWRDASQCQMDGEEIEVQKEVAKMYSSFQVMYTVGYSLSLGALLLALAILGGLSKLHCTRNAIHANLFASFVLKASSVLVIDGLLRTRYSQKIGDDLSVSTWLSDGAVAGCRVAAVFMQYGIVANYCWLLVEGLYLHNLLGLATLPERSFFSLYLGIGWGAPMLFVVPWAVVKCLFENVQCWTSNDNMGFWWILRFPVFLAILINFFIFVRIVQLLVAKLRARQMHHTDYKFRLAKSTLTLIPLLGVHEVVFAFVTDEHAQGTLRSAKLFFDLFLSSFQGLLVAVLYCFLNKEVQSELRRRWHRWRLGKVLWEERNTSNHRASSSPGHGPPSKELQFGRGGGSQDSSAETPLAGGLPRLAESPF

Compound	EC50 [1]	EC50 [2]
CCCCCCCCCCCCO[C@@H]1O[C@H](CO[C@H]2O[C@H](C(=O)NCCCC[C@@H]3NC(=O)[C@@H](NC(=O)[C@H](CC(=O)O)NC(=O)[C@H](CC(C)C)NC(=O)[C@H](Cc4ccc(O)cc4)NC(=O)[C@H](CCCCN)NC(=O)[C@H](CO)NC(=O)[C@H](Cc4ccc(O)cc4)NC(=O)[C@H](CC(=O)O)NC(=O)[C@H](CO)NC(=O)[C@@H](NC(=O)[C@H](Cc4ccccc4)NC(=O)[C@@H](NC(=O)CNC(=O)[C@H](CCC(N)=O)NC(=O)C(C)(C)NC(=O)[C@@H](N)Cc4c[nH]cn4)[C@@H](C)O)[C@@H](C)O)CCC(=O)NCCCC[C@@H](C(=O)N[C@@H](CCC(=O)O)C(=O)N[C@@H](Cc4ccccc4)C(=O)N[C@H](C(=O)N[C@@H](CCC(N)=O)C(=O)N[C@@H](Cc4c[nH]c5ccccc45)C(=O)N[C@@H](CC(C)C)C(=O)N[C@@H](CC(C)C)C(=O)N[C@@H](CCC(N)=O)C(=O)N[C@H](C(N)=O)[C@@H](C)O)[C@@H](C)CC)NC(=O)[C@H](C)NC(=O)[C@H](C)NC3=O)[C@H](O)[C@H](O)[C@H]2O)[C@@H](O)[C@H](O)[C@H]1O [EU-A1586]	0.107 nM	0.029 nM
CCCCCCCCCCCCO[C@@H]1O[C@H](CO[C@H]2O[C@H](C(=O)NCCCC[C@@H]3NC(=O)[C@@H](NC(=O)[C@H](CC(=O)O)NC(=O)[C@H](CC(C)C)NC(=O)[C@H](Cc4ccc(O)cc4)NC(=O)[C@H](CCCCN)NC(=O)[C@H](CO)NC(=O)[C@H](Cc4ccc(O)cc4)NC(=O)[C@H](CC(=O)O)NC(=O)[C@H](CO)NC(=O)[C@@H](NC(=O)[C@H](Cc4ccccc4)NC(=O)[C@@H](NC(=O)CNC(=O)[C@H](CCC(N)=O)NC(=O)C(C)(C)NC(=O)[C@@H](N)Cc4c[nH]cn4)[C@@H](C)O)[C@@H](C)O)CCC(=O)NCCCC[C@@H](C(=O)N[C@@H](CCC(=O)O)C(=O)N[C@@H](Cc4ccccc4)C(=O)N[C@H](C(=O)N[C@@H](CCC(N)=O)C(=O)N[C@@H](Cc4c[nH]c5ccccc45)C(=O)N[C@@H](CC(C)C)C(=O)N[C@@H](CC(C)C)C(=O)N[C@@H](CCC(N)=O)C(=O)N[C@H](C(=O)O)[C@@H](C)O)[C@@H](C)CC)NC(=O)[C@H](C)NC(=O)[C@H](C)NC3=O)[C@H](O)[C@H](O)[C@H]2O)[C@@H](O)[C@H](O)[C@H]1O [EU-A1590]	0.343 nM	0.094 nM
CCCCCCCCCCCCO[C@@H]1O[C@H](CO[C@H]2O[C@H](C(=O)NCCCC[C@@H]3NC(=O)[C@@H](NC(=O)[C@H](CC(=O)O)NC(=O)[C@H](CC(C)C)NC(=O)[C@H](Cc4ccc(O)cc4)NC(=O)[C@H](CCCCN)NC(=O)[C@H](CO)NC(=O)[C@H](Cc4ccc(O)cc4)NC(=O)[C@H](CC(=O)O)NC(=O)[C@H](CO)NC(=O)[C@@H](NC(=O)[C@H](Cc4ccccc4)NC(=O)[C@@H](NC(=O)CNC(=O)[C@H](CCC(N)=O)NC(=O)C(C)(C)NC(=O)[C@@H](N)Cc4c[nH]cn4)[C@@H](C)O)[C@@H](C)O)CCC(=O)NCCCC[C@@H](C(=O)N[C@@H](CCC(=O)O)C(=O)N[C@@H](Cc4ccccc4)C(=O)N[C@H](C(=O)N[C@@H](CCC(=O)O)C(=O)N[C@@H](Cc4c[nH]c5ccccc45)C(=O)N[C@@H](CC(C)C)C(=O)N[C@@H](CC(C)C)C(=O)N[C@@H](CCC(N)=O)C(=O)N[C@H](C(N)=O)[C@@H](C)O)[C@@H](C)CC)NC(=O)[C@H](C)NC(=O)[C@H](C)NC3=O)[C@H](O)[C@H](O)[C@H]2O)[C@@H](O)[C@H](O)[C@H]1O [EU-A1591] (H-H[Aib]QGTFTSDYSKYLDEK(Melibiouronoyl(1β-O-dodecyl))AAKEFIEWLLQT-NH2; lactam 16-20; N-terminus assumed)	0.286 nM	0.073 nM
CCCCCCCCCCCCO[C@@H]1O[C@H](CO[C@H]2O[C@H](C(=O)NCCCC[C@@H]3NC(=O)[C@@H](NC(=O)[C@H](CC(=O)O)NC(=O)[C@H](CC(C)C)NC(=O)[C@H](Cc4ccc(O)cc4)NC(=O)[C@H](CCCCN)NC(=O)[C@H](CO)NC(=O)[C@H](Cc4ccc(O)cc4)NC(=O)[C@H](CC(=O)O)NC(=O)[C@H](CO)NC(=O)[C@@H](NC(=O)[C@H](Cc4ccccc4)NC(=O)[C@@H](NC(=O)CNC(=O)[C@H](CCC(N)=O)NC(=O)C(C)(C)NC(=O)[C@@H](N)Cc4c[nH]cn4)[C@@H](C)O)[C@@H](C)O)CCC(=O)NCCCC[C@@H](C(=O)N[C@@H](CCC(=O)O)C(=O)N[C@@H](Cc4ccccc4)C(=O)N[C@H](C(=O)N[C@@H](CCC(=O)O)C(=O)N[C@@H](Cc4c[nH]c5ccccc45)C(=O)N[C@@H](CC(C)C)C(=O)N[C@@H](CC(C)C)C(=O)N[C@@H](CCC(N)=O)C(=O)N[C@H](C(=O)O)[C@@H](C)O)[C@@H](C)CC)NC(=O)[C@H](C)NC(=O)[C@H](C)NC3=O)[C@H](O)[C@H](O)[C@H]2O)[C@@H](O)[C@H](O)[C@H]1O [EU-A1592] (H-H[Aib]QGTFTSDYSKYLDEK(Melibiouronoyl(1β-O-dodecyl))AAKEFIEWLLQT-OH; lactam 16-20; N-terminus assumed)	0.78 nM	0.25 nM
CCCCCCCCCCCCO[C@@H]1O[C@H](CO[C@H]2O[C@H](C(=O)NCCCC[C@H](NC(=O)[C@H](CC(=O)O)NC(=O)[C@H](CO)NC(=O)[C@@H](NC(=O)[C@H](Cc3ccccc3)NC(=O)[C@@H](NC(=O)CNC(=O)[C@H](CCC(N)=O)NC(=O)C(C)(C)NC(=O)[C@@H](N)Cc3c[nH]cn3)[C@@H](C)O)[C@@H](C)O)C(=O)N[C@@H](CO)C(=O)N[C@@H](CCCCN)C(=O)N[C@@H](Cc3ccc(O)cc3)C(=O)N[C@@H](CC(C)C)C(=O)N[C@@H](CC(=O)O)C(=O)N[C@H]3CCC(=O)NCCCC[C@@H](C(=O)N[C@@H](CCC(=O)O)C(=O)N[C@@H](Cc4ccccc4)C(=O)N[C@H](C(=O)N[C@@H](CCC(N)=O)C(=O)N[C@@H](Cc4c[nH]c5ccccc45)C(=O)N[C@@H](CC(C)C)C(=O)N[C@@H](CC(C)C)C(=O)N[C@@H](CCC(N)=O)C(=O)N[C@H](C(N)=O)[C@@H](C)O)[C@@H](C)CC)NC(=O)[C@H](C)NC(=O)[C@H](C)NC(=O)[C@H](CCC(N)=O)NC3=O)[C@H](O)[C@H](O)[C@H]2O)[C@@H](O)[C@H](O)[C@H]1O [EU-A1594] (H-H[Aib]QGTFTSDK(Melibiouronoyl(1β-O-dodecyl))SKYLDEQAAKEFIQWLLQT-NH2; lactam 16-20)	0.068 nM	0.011 nM
CCCCCCCCCCCCCCO[C@@H]1O[C@H](CO[C@H]2O[C@H](C(=O)NCCCC[C@H](NC(=O)[C@H](CC(=O)O)NC(=O)[C@H](CO)NC(=O)[C@@H](NC(=O)[C@H](Cc3ccccc3)NC(=O)[C@@H](NC(=O)CNC(=O)[C@H](CCC(N)=O)NC(=O)C(C)(C)NC(=O)[C@@H](N)Cc3c[nH]cn3)[C@@H](C)O)[C@@H](C)O)C(=O)N[C@@H](CO)C(=O)N[C@@H](CCCCN)C(=O)N[C@@H](Cc3ccc(O)cc3)C(=O)N[C@@H](CC(C)C)C(=O)N[C@@H](CC(=O)O)C(=O)N[C@H]3CCC(=O)NCCCC[C@@H](C(=O)N[C@@H](CCC(=O)O)C(=O)N[C@@H](Cc4ccccc4)C(=O)N[C@H](C(=O)N[C@@H](CCC(N)=O)C(=O)N[C@@H](Cc4c[nH]c5ccccc45)C(=O)N[C@@H](CC(C)C)C(=O)N[C@@H](CC(C)C)C(=O)N[C@@H](CCC(N)=O)C(=O)N[C@H](C(N)=O)[C@@H](C)O)[C@@H](C)CC)NC(=O)[C@H](C)NC(=O)[C@H](C)NC(=O)[C@H](CCC(N)=O)NC3=O)[C@H](O)[C@H](O)[C@H]2O)[C@@H](O)[C@H](O)[C@H]1O [EU-A1595] (H-H[Aib]QGTFTSDK(X2)SKYLDEQAAKEFIQWLLQT-NH2; lactam 16-20; N-terminus assumed)	0.113 nM	0.021 nM
